Assay [1] deals with Neutrophil. Put plainly: Inhibition of fMLF/CB-induced human Neutrophil activation assessed as reduction in superoxide anion generation preincubated with compound for 2 mins prior to CB induction for 3 mins followed by fMLF addition by spectrophotometric analysis. The format is functional, cell-based.
Assay [2] concerns Neutrophil. The experiment in a line: Inhibition of fMLF/CB-induced human Neutrophil activation assessed as reduction in superoxide anion generation at 10 uM preincubated with compound for 2 mins prior to CB induction for 3 mins followed by fMLF addition by spectrophotometric analysis relative to control. The format is functional. The settings on record: 5 min.
Assay [3] relates to Neutrophil. Put plainly: Inhibition of fMLF/CB-induced human Neutrophil activation assessed as reduction in elastase release using MeO-Suc-Ala-Ala-Pro-Val-pnitroanilide as substrate incubated for 5 mins. The format is functional, cell-based.
For assay [4], the system named is Neutrophil. The experiment in a line: Inhibition of fMLF/CB-induced human Neutrophil activation assessed as reduction in elastase release at 10 uM using MeO-Suc-Ala-Ala-Pro-Val-pnitroanilide as substrate incubated for 5 mins relative to control. The format is functional.

Among the data in ChEMBL document CHEMBL5634155, “Design and synthesis of pyrazole derivatives against neutrophilic inflammation” (Eur J Med Chem, 2023) are IC50 and inhibition values, retold here.

As usually defined, the IC50 is the point on the concentration scale where inhibition reaches its midpoint. One may read the inhibition as the relative decrease from the control value, in per cent.

For `O=Cc1ccc(-c2nn(C(=O)c3ccccc3)c3ccccc23)o1`, the half-inhibitory concentration (IC50) in the assay with Neutrophil [1] and with Neutrophil [3] was above 10 µM throughout. The inhibition at 10 µM with Neutrophil [2] worked out at 10.1%; in the assay with Neutrophil [4], 18.1%.
`O=[N+]([O-])c1cccc2c(-c3ccc(CO)o3)nn(Cc3ccccc3)c12`: the half-maximal inhibitory concentration (IC50) in the assay with Neutrophil [1] turned out to be 1.81 µM; with Neutrophil [3], 7.58 µM. In addition, the inhibition at 10 µM in the assay with Neutrophil [2] was determined as 82.6%; in the assay with Neutrophil [4], 68.3%.
The corresponding values for `O=Cc1ccc(-c2nn(Cc3ccccc3Br)c3ccccc23)o1` are 0.19 µM, 2.27 µM, 67.4% and 106%.
As for `OC(c1ccc(-c2nn(Cc3ccccc3F)c3ccccc23)o1)C(F)(F)F` (stereo unspecified), the half-maximal inhibitory concentration (IC50) with Neutrophil [1] and in the assay with Neutrophil [3] was above 10 µM throughout. Also, the inhibition at 10 µM is 35.7% in the assay on Neutrophil [2] and 10.3% with Neutrophil [4].
Regarding `O=C(c1ccccc1F)n1nc(-c2ccco2)c2ccccc21`, the IC50 in the assay on Neutrophil [1] was 0.34 µM; with Neutrophil [3] it was above 10 µM. Further, the results for the inhibition at 10 µM with Neutrophil [2] and with Neutrophil [4] were 69.5% and -9.57%, respectively.
As to `CCCCCCCn1nc(-c2ccccc2)cc1-c1ccccc1`, the IC50 with Neutrophil [1] and with Neutrophil [3] was above 10 µM each time. In addition, the results for the inhibition at 10 µM in the assay on Neutrophil [2] and with Neutrophil [4] were 4.58% and 1.6%, respectively.
Regarding `Fc1cccc(Cn2nc(-c3ccccc3)cc2-c2ccccc2)c1`, the IC50 with Neutrophil [1] and in the assay on Neutrophil [3] was above 10 µM throughout. In addition, the inhibition at 10 µM in the assay with Neutrophil [2] stood at 48.3%; in the assay on Neutrophil [4], 17.6%.
As to `CCCCCCCn1nc(-c2ccc(C=O)o2)c2ccccc21`, the half-inhibitory concentration (IC50) in the assay on Neutrophil [1] was above 10 µM; in the assay with Neutrophil [3], 2.56 µM. The inhibition at 10 µM with Neutrophil [2] was determined as 5.88%; with Neutrophil [4], 67.1%.
For `CCCCCCCn1nc(-c2ccc(C(=O)O)o2)c2ccccc21` the same measures were 2.03 µM, 1.92 µM, 98.7% and 112%.
`c1ccc(-c2cc(-c3ccccc3)n(CC3CCCCC3)n2)cc1`: the IC50 in the assay on Neutrophil [1] and in the assay with Neutrophil [3] was above 10 µM each time. Further, the values for the inhibition at 10 µM in the assay with Neutrophil [2] and in the assay with Neutrophil [4] were 40.8% and 8.16%, respectively.
Consider `O=Cc1ccc(-c2cc(-c3ccccc3)n(Cc3ccccc3)n2)o1`, for which the values for the IC50 in the assay on Neutrophil [1] and in the assay with Neutrophil [3] were 1.55 µM and 1.84 µM, respectively. The inhibition at 10 µM with Neutrophil [2] was 80.8%; with Neutrophil [4] it was 96.1%.
For `c1ccc(Cn2nc(-c3ccco3)cc2-c2ccccc2)cc1`, the half-inhibitory concentration (IC50) with Neutrophil [1] was 0.0751 µM; in the assay on Neutrophil [3], above 10 µM. Further, the inhibition at 10 µM stood at 73% with Neutrophil [2] and 46% with Neutrophil [4].
The corresponding values for `COc1ccccc1C(=O)n1nc(-c2ccc(C=O)o2)c2ccccc21` are above 10 µM, above 10 µM, 10.4% and 31.8%.
For `c1ccc(Cn2nc(-c3cccs3)cc2-c2ccccc2)cc1` the same measures were 0.0745 µM, above 10 µM, 70% and 39.1%.
`Fc1cccc(Cn2cc(-c3ccccc3)c(-c3cccs3)n2)c1`: the results for the IC50 with Neutrophil [1] and with Neutrophil [3] were 1.79 µM and above 10 µM, respectively. Further, the figures for the inhibition at 10 µM in the assay on Neutrophil [2] and in the assay with Neutrophil [4] were 63.7% and 33.6%, respectively.
The corresponding values for `O=Cc1ccc(-c2nn(Cc3ccccc3F)c3ccccc23)o1` are 0.71 µM, 5.27 µM, 78.2% and 84.7%.
With `CCCCCCCn1nc(-c2ccco2)c2ccccc21`, the IC50 in the assay on Neutrophil [1] and with Neutrophil [3] was above 10 µM each time. Besides, the inhibition at 10 µM in the assay on Neutrophil [2] amounted to 8.38%; in the assay with Neutrophil [4], 44.2%.
As to `Fc1ccccc1Cn1nc(-c2ccccc2)cc1-c1ccccc1`, the figures for the IC50 in the assay on Neutrophil [1] and with Neutrophil [3] were 4.69 µM and above 10 µM, respectively. Besides, the inhibition at 10 µM was 61.8% in the assay with Neutrophil [2] and 35% in the assay on Neutrophil [4].
For `O=Cc1ccc(-c2nn(Cc3ccccc3)c3ccccc23)o1` the same measures were 1 µM, 3.68 µM, 75.2% and 89.7%.
The corresponding values for `c1ccc(Cn2cc(-c3ccccc3)c(-c3ccccc3)n2)cc1` are 201 µM, above 10 µM, 61.6% and 6.79%.
For `CCCCCCCn1nc(-c2cccs2)cc1-c1ccccc1`, the IC50 in the assay on Neutrophil [1] and in the assay on Neutrophil [3] was above 10 µM throughout. Besides, the inhibition at 10 µM in the assay with Neutrophil [2] was found to be 16.6%; in the assay on Neutrophil [4], 21.1%.
Regarding `c1ccc(Cn2cc(-c3ccccc3)c(-c3ccco3)n2)cc1`, the values for the inhibition at 10 µM with Neutrophil [2] and in the assay on Neutrophil [4] were 94.2% and 101%, respectively. Also, in the assay on Neutrophil [3], the 50% inhibitory concentration (IC50) is above 10 µM.
On to `c1ccc(-c2cc(-c3ccco3)nn2CC2CCCCC2)cc1`, for which the concentration for half-maximal inhibition (IC50) is 0.2 µM in the assay on Neutrophil [1] and 2.42 µM in the assay with Neutrophil [3]. Also, the inhibition at 10 µM in the assay with Neutrophil [2] was 99.3%; in the assay on Neutrophil [4], 109%.
The corresponding values for `CCCCCCCn1nc(-c2ccco2)cc1-c1ccccc1` are 0.694 µM, 2.13 µM, 101% and 115%.
Consider `O=Cc1ccc(-c2nn(C(=O)c3ccccc3F)c3ccccc23)o1`, for which the concentration for half-maximal inhibition (IC50) in the assay on Neutrophil [1] and with Neutrophil [3] was above 10 µM each time. Besides, the results for the inhibition at 10 µM in the assay on Neutrophil [2] and in the assay on Neutrophil [4] were 31.8% and 52.2%, respectively.
For `Fc1cccc(Cn2cc(-c3ccccc3)c(-c3ccco3)n2)c1`, the inhibition at 10 µM was determined as 90.2% with Neutrophil [2] and 100% with Neutrophil [4]. Moreover, in the assay with Neutrophil [3], the IC50 is 2.05 µM.
Regarding `COc1cccc(Cn2cc(-c3ccccc3)c(-c3ccccc3)n2)c1`, the IC50 was 164 µM in the assay with Neutrophil [1] and above 10 µM in the assay on Neutrophil [3]. Further, the inhibition at 10 µM in the assay on Neutrophil [2] came to 68.6%; in the assay with Neutrophil [4], 25%.
As to `O=C(c1ccccc1)n1nc(-c2ccco2)c2ccccc21`, the IC50 in the assay on Neutrophil [1] is 0.17 µM. In the assay with Neutrophil [2], the inhibition at 10 µM was 59.7%.
As for `COc1ccc(-c2cc(-c3ccccc3)n(Cc3cccc(F)c3)n2)cc1OC`, the 50% inhibitory concentration (IC50) in the assay with Neutrophil [1] and in the assay on Neutrophil [3] was above 10 µM in each case. The results for the inhibition at 10 µM in the assay with Neutrophil [2] and in the assay with Neutrophil [4] were 44.5% and 38.5%, respectively.
Consider `c1ccc(-c2cc(-c3cccs3)nn2CC2CCCCC2)cc1`, for which the IC50 in the assay with Neutrophil [1] and in the assay with Neutrophil [3] was above 10 µM each time. Further, the values for the inhibition at 10 µM in the assay on Neutrophil [2] and in the assay with Neutrophil [4] were 39% and 15.2%, respectively.
`Fc1cccc(Cn2nc(-c3cccs3)cc2-c2ccccc2)c1`: the 50% inhibitory concentration (IC50) with Neutrophil [1] was 0.0762 µM; with Neutrophil [3], above 10 µM. The inhibition at 10 µM with Neutrophil [2] amounted to 73.3%; in the assay on Neutrophil [4], 35.5%.
As to `Brc1ccccc1Cn1nc(-c2ccco2)c2ccccc21`, the figures for the half-inhibitory concentration (IC50) in the assay on Neutrophil [1] and with Neutrophil [3] were 1.47 µM and 4.84 µM, respectively. For the same compound, the inhibition at 10 µM in the assay with Neutrophil [2] came to 93.1%; in the assay with Neutrophil [4] it was 78%.
Take `CCCCCCCn1cc(-c2ccccc2)c(-c2cccs2)n1`: the IC50 with Neutrophil [1] and in the assay on Neutrophil [3] was above 10 µM throughout. Further, the inhibition at 10 µM with Neutrophil [2] is -5.72%; in the assay on Neutrophil [4], 21%.
Consider `CCCCCCCn1cc(-c2ccccc2)c(-c2ccco2)n1`, for which the inhibition at 10 µM came to 102% in the assay with Neutrophil [2] and 110% in the assay on Neutrophil [4]. For the same compound, the half-maximal inhibitory concentration (IC50) in the assay with Neutrophil [3] came out at 1.08 µM.
